# According to US9518038B2, “Condensation product of theanine derivative and carboxylic acid coumarin derivative, its intermediate, preparation method and use thereof” (SHANDONG YINGDONG YINGHAO BIOTECHNOLOGY, INC., priority 2012, dated 2016):
# Columns and labels:
# [1] = test system: human lung cancer cells H460; assay: MTT growth inhibition, H460 cells; type: cell-based; details: NCI-H460, 72 h after treatment, read-out: Drug concentration (IC50) at which 50% cancer cells survived
# From the text: (§1) Cell lines and cell culture: human lung cancer cells A549 and H460, human breast cancer cells MCF-7 and MDA-MB-231, human gastric cancer cells BGC-823, human prostate cancer cells PC-3, human chronic leukemia cells K562, human lymphoma cells U937, human liver cancer cells SMMC7721 and HepG2, human colon cancer cells HT29, human pancreatic cancer cells PANC-1 and BxPC3, human cervical cancer Hela cell lines, human brain tumor cells Daoy, human neuroma cells D54 and human oral epidermoid cancer cells KBV200 line with strong drug resistance, mouse melanoma cells B16, and highly metastatic Lewis lung cancer cell lines were purchased from American Type Culture Collection of the U.S. These cells were cultured with DMEM and RPMI-1640 culture solutions separately.
# (§2) The procedure was as follows:
# (§3) (1) 0.25% trypsin was used to digest cancer cells in a logarithmic growth phase to prepare a single-cell suspension, the concentration of cells was adjusted to 5×10^4/mL, and the adjusted suspension was inoculated into a 96-well culture plate with 100 μl per well;
# (§4) (2) The culture plate was transferred into a 37° C. incubator with a saturated humidity and 5% of CO2 and cultured for 24 h; the compounds and the intermediates thereof obtained in embodiments 1-7 and the compound as represented by formula (IIIa) or the positive control anti-cancer drug with the concentration of 1-1000 μM/L were added to enable the final concentration to be 0.1-1500 μM/L. Control wells (only added with 200 μl of cell suspension) and drug-free blank control wells (containing the solvent of 0.01% DMSO) were set, each group included 8 wells, and the plate was placed into the 37° C. incubator with saturated humidity and 5% of CO2 for culturing;
# (§5) (3) The 96-well plate was taken out at 48 h and 72 h after dosing, the original culture medium was carefully removed by suction, 100 μl of serum-free DMEM culture medium and 10 μl of MTT (5 mg/mL) solution were added in each well. The plate was continuously cultured for another 4 h and then the culture was terminated;
# (§6) (4) The supernatant in the wells was carefully removed by suction, each well was added with 150 μl of DMSO and shaked at room temperature for 10-15 min to fully dissolve crystals.
# (§7) (5) Colorimetric analysis: the wavelength was selected as 570 nm, the light absorbance (A value) of each well was determined on the microplate reader and the results were recorded; the experiment was repeated for three times;
# (§8) (6) the experimental results were calculated according to the following formula: relative survival rate=(A value of each experimental group/A value of cell control group)×100%
# (§9) Calculation of median-effect concentration (IC50, namely the drug concentration at which the inhibition rate is 50%, also known as half inhibitory concentration):
# (§10) IC50 of the detected component was calculated by using a regression equation.
# Caspase3 = assay: Western Blotting, increase of Caspase3 level; type: cell-based; details: liver cancer cells, Lewis lung cancer cells and other cancer cell lines and tumor tissue protein lysates, 48 h treatment, read-out: Effective concentration to increase Caspase-3 by 50%
# From the text: (§11) Antibodies: primary antibodies of VEGFR, EGFR, c-Met, K-Ras, H-Ras, Akt, NF-κB, Cyclin D1, ER-alpha, Dvl-1, Dvl-2, Dvl-3, MMP-9, MMP2, β-catenin, Bcl-2, Bax, p53, p21, E-cadherin and Caspase3 protein, purchased from American Cell Signaling Technology Company and Santa Cruz Technology Company; and H3 acetylation, H4 acetylation and HDAC (HDAC3, HDAC4 and the like) Antibody Sample Kits, purchased from Cell Signaling Technology Company of the U.S.
# (§12) (3) polyacrylamide gel electrophoresis (SDS-PAGE): an equal amount of protein lysate sample was used to separate protein, film transfer, and blocking, treated with appropriate primary antibodies and secondary antibodies in sequence, and the film was washed, then the color was developed with ECL kit, and a blot protein band was detected by exposure of an X-ray film; and a Gel-Pro Analyzer was used for quantitative analysis of gray degree, optical density value of the control group and the drug treatment group in various concentration were respectively compared with that of internal reference, the obtained ratios were respectively compared with the control group, and the protein expression level was semi-quantified.
# HDAC3 = assay: Western Blotting, HDAC3 level; type: cell-based; details: human liver cancer cells, Lewis lung cancer cells and other cancer cell lines and tumor tissues, read-out: Effective concentration (IC50) for inhibition of HDAC3
# From the text: as §11, §12
# NF-κB = assay: Western Blotting, NF-κB level; type: cell-based; details: human liver cancer cells, Lewis lung cancer cells and other cancer cell lines and tumor tissues, read-out: Effective concentration (IC50) for inhibition of NF-κB
# From the text: as §11, §12
# [2] = test system: human colon cancer cells HT29; assay: MTT growth inhibition, HT29 cells; type: cell-based; details: HT-29, 72 h after treatment, read-out: Drug concentration (IC50) at which 50% cancer cells survived
# From the text: as §1, §2, §3, §4, §5, §6, §7, §8, §9, §10
# [3] = test system: human cervical cancer Hela cell lines; assay: MTT growth inhibition, Hela cells; type: cell-based; details: Homo sapiens, 72 h after treatment, read-out: Drug concentration (IC50) at which 50% cancer cells survived
# From the text: as §1, §2, §3, §4, §5, §6, §7, §8, §9, §10
# [4] = test system: human pancreatic cancer cells BxPC3; assay: MTT growth inhibition, BxPc3 cells; type: cell-based; details: Homo sapiens, BXPC-3, 72 h after treatment, read-out: Drug concentration (IC50) at which 50% cancer cells survived
# From the text: as §1, §2, §3, §4, §5, §6, §7, §8, §9, §10
# [5] = test system: human liver cancer cells SMMC7721 xenograft; assay: In-vivo growth of SMMC7721 xenografts in nude mice; parameters: species or system BALB/c nude mice; details: Mus musculus, SMMC-7721, ip, S-7721 xenograft, vs DMSO solvent control, read-out: Curative effect (inhibition rate %) of tumor weight; for inhibition in vivo at 60 mg/kg: 60 mg/kg intraperitoneal once a day; for inhibition in vivo at 90 mg/kg: 90 mg/kg intraperitoneal once a day
# Method: RPMI1640 and DMEM culture solutions: Hyclone Company; inactivated fetal bovine serum: Hyclone Company, preserved at −20° C.; trypsin: Amersco Company; and 0.4% trypan blue: Sigma Company;
# (3) Observation of growth of tumors in nude mice: the activities (including food intake, traits of urine and stool, mental state and the like) of the nude mice and the tumor growth time and growth situation of the transplanted tumors were observed every day, the body weight and the size of the tumors were measured once every 2-3 days. The long diameter a and the short diameter b (mm) of each tumor were measured by a vernier caliper to calculate the volume, wherein the volume V=π1/2·ab^2 (mm^3);
# (4) sacrifice of animals: the mice were anesthetized and photoed after treatment experiments; the nude mice were sacrificed by breaking neck, the tumor tissues were stripped under sterile conditions and the weight of the tumors was weighed; and the effects of the drugs on pathology and toxicity of the various organs and tissues were detected.
# Dvl-1 = assay: Western Blotting, Dvl-1 level; type: cell-based; details: human liver cancer cells, Lewis lung cancer cells and other cancer cell lines and tumor tissues, read-out: Effective concentration (IC50) for inhibition of Dvl-1
# From the text: as §11, §12
# VEGFR1 = assay: Western Blotting, VEGFR1 level; type: cell-based; details: human liver cancer cells, Lewis lung cancer cells and other cancer cell lines and tumor tissues, read-out: Effective concentration (IC50) for inhibition of VEGFR1
# From the text: as §11, §12
# E-cadherin = assay: Western Blotting, increase of E-cadherin level; type: cell-based; details: liver cancer cells, Lewis lung cancer cells and other cancer cell lines and tumor tissue protein lysates, 48 h treatment, read-out: Effective concentration to increase E-cadherin by 50%
# From the text: as §11, §12
SMILES,IC50 [1],EC50 (Caspase3),IC50 (HDAC3),IC50 (NF-κB),IC50 [2],IC50 [3],IC50 [4],inhibition in vivo at 60 mg/kg [5],inhibition in vivo at 90 mg/kg [5],IC50 (Dvl-1),IC50 (VEGFR1),EC50 (E-cadherin)
"CCNC(=O)CCC(NC(=O)c1cc2cc(F)ccc2oc1=O)C(=O)OCC (stereo in doubt) [Compound Ie, (R)-2-(6-F-2-oxo-2H-benzopyran-3-carboxamido)-5-ethylamino-5-oxo-pentanoic acid ethyl ester]",100 µM,< 100 µM,< 55 µM,< 60 µM,240 µM,71 µM,260 µM,64.8%,69.9%,< 150 µM,< 110 µM,< 65 µM
"CCNC(=O)CCC(NC(=O)c1cc2cc([N+](=O)[O-])ccc2oc1=O)C(=O)OCC (stereo in doubt) [Compound If, (R)-2-(6-nitro-2-oxo-2H-benzopyran-3-carboxamido)-5-ethylamino-5-oxo-pentanoic acid ethyl ester]",100 µM,< 80 µM,< 55 µM,< 60 µM,153 µM,71 µM,180 µM,65.7%,75.7%,< 200 µM,< 90 µM,< 65 µM
"CCNC(=O)CC[C@H](N)C(=O)OC [Compound IIa, theanine methyl ester]",500 ± 40 µM,,,,250 µM,330 µM,600 µM,36.6%,38.2%,,,
"CCNC(=O)CC[C@H](N)C(=O)OCC [Compound IIb, theanine ethyl ester]",400 ± 10 µM,,,,600 µM,500 µM,300 µM,44.6%,46.8%,,,
"CCNC(=O)CCC(NC(=O)c1cc2ccccc2oc1=O)C(=O)OC (stereo not drawn) [Compound Ia, methyl 5-ethylamino-5-oxo-2-(2-oxo-2H-benzopyran-3-carboxamido)pentanoate]",230 µM,< 125 µM,< 75 µM,< 125 µM,62 µM,64 ± 20 µM,350 µM,52.7%,61.9%,< 135 µM,< 125 µM,< 75 µM
"CCNC(=O)CCC(NC(=O)c1cc2ccccc2oc1=O)C(=O)OCC (stereo not drawn) [Compound Ib, ethyl 5-ethylamino-5-oxo-2-(2-oxo-2H-benzopyran-3-carboxamido)pentanoate]",113 µM,< 120 µM,< 70 µM,< 120 µM,105 µM,53 µM,105 µM,60.8%,66.6%,< 300 µM,< 120 µM,< 70 µM
"CCNC(=O)CC[C@@H](NC(=O)c1cc2cc(Cl)ccc2oc1=O)C(=O)OCC [Compound Ic, (R)-2-(6-CI-2-oxo-2H-benzopyran-3-carboxamido)-5-ethylamino-5-oxo-pentanoic acid ethyl ester]",106 ± 50 µM,< 100 µM,< 65 µM,< 100 µM,105 µM,350 µM,89 µM,63.2%,69.2%,< 250 µM,< 100 µM,< 65 µM
"CCNC(=O)CC[C@@H](NC(=O)c1cc2cc(Br)ccc2oc1=O)C(=O)OCC [Compound Id, (R)-2-(6-Br-2-oxo-2H-benzopyran-3-carboxamido)-5-ethylamino-5-oxo-pentanoic acid ethyl ester]",101 µM,< 100 µM,< 65 µM,< 80 µM,45 µM,75 µM,116 µM,67.2%,75.7%,< 250 µM,< 100 µM,< 65 µM
"CCNC(=O)CC[C@@H](NC(=O)c1cc2cc(Cl)cc(Cl)c2oc1=O)C(=O)OCC [Compound Ig, (R)-2-(6,8-dichloro-2-oxo-2H-benzopyran-3-carboxamido)-5-ethylamino-5-oxo-pentanoic ethyl ester]",93 µM,< 70 µM,< 65 µM,< 100 µM,99 µM,66 µM,119 µM,53.6%,70.6%,< 125 µM,< 100 µM,< 70 µM
"CCNC(=O)CC[C@@H](NC(=O)c1cc2cc(Br)cc(Br)c2oc1=O)C(=O)OCC [Compound Ih, (R)-2-(6,8-dibromo-2-oxo-2H-benzopyran-3-carboxamido)-5-ethylamino-5-oxo-pentanoic ethyl ester]",109 µM,< 70 µM,< 65 µM,< 100 µM,108 µM,58 µM,128 µM,57.7%,78.7%,< 250 µM,< 100 µM,< 70 µM
